Earlier results, collected in patent publication US20210121408A1, “Methods of Administering Cannabinoid to People Diagnosed With HIV” (priority 2019, published 2021).

CCCCCc1cc(O)c2c(c1)OC(C)(C)[C@@H]1CCC(C)=C[C@@H]21 [THC, delta-9-tetrahydrocannabinol]
solubility in ethanol, acetone, chloroform and light petroleum (ethanol, acetone, chloroform and light petroleum): soluble | solubility in water (water): insoluble
